Laboratory results: patent publication US12115222B2, “Compositions and methods for improving the solubility of erectile dysfunction therapeutics” (Villya LLC, priority 2023, dated 2024)
“And” between values parts separate entries of the source, which are not always exact repeats. Equal values may be shown once. Read-outs that look alike come from different tables or passages of the source.

Columns and labels:
[1] = cited from earlier work
[2] = Non-caloric sugar solubility in water and 95% ethanol
Protocol: In this experiment, the following sugars were compared for solubility: rubusoside, dulcoside A, rebaudioside B, dulcoside B, and rebaudioside D. Approximately 5.0 mg of each sugar was attempted to be dissolved in 0.6 mL water and vortexed for 2 minutes at room temperature.
In another experiment, 50 mg stevia was dissolved in either 2.0 mL water or 2.0 mL 95% ethanol.

[3] = approximately 5.0 mg in 0.6 mL water, vortexed 2 minutes, room temperature

Molecule	solubility of the sugar in 95% ethanol (observation) ([2]; 50 mg in 2.0 mL 95% ethanol)	solubility of the sugar in water (observation) ([2]; 50 mg in 2.0 mL water)	solubility of the sugar in water (observation) [2, 3]	time to dissolve in 95% ethanol ([2]; 50 mg in 2.0 mL 95% ethanol, room temperature) [h]	Sugar Solubility in 95% EtOH [1]	Sugar Solubility in Water [1]	Sugar Solubility in 95% EtOH ([1]; at 20° C.) [g/L at 20 °C]	Sugar Solubility in Water ([1]; at 20° C.) [g/L at 20 °C]
CCCCCCCCCCCCO[C@@H]1O[C@H](CO)[C@@H](O[C@H]2O[C@H](CO)[C@@H](O)[C@H](O)[C@H]2O)[C@H](O)[C@H]1O [n-Dodecyl-β-D-maltoside]	soluble	soluble			Soluble	50 mg/mL		
C=C1C[C@@]23CC[C@H]4[C@@](C)(CCC[C@@]4(C)C(=O)O[C@@H]4O[C@H](CO)[C@@H](O)[C@H](O)[C@H]4O)[C@@H]2CC[C@]1(O[C@@H]1O[C@H](CO)[C@@H](O)[C@H](O[C@@H]2O[C@H](CO)[C@@H](O)[C@H](O)[C@H]2O)[C@H]1O[C@@H]1O[C@H](CO)[C@@H](O)[C@H](O)[C@H]1O)C3 [rebaudioside A]	either insoluble or partially soluble	soluble			Poorly soluble	Poorly soluble		
dulcoside A			partially soluble		Partly soluble	2.28 mg/mL		

Second part, led by results:

solubility of the sugar in 95% ethanol (observation) ([2]; 50 mg in 2.0 mL 95% ethanol)	solubility of the sugar in water (observation) ([2]; 50 mg in 2.0 mL water)	solubility of the sugar in water (observation) [2, 3]	time to dissolve in 95% ethanol ([2]; 50 mg in 2.0 mL 95% ethanol, room temperature) [h]	Molecule	Sugar Solubility in 95% EtOH [1]	Sugar Solubility in Water [1]	Sugar Solubility in 95% EtOH ([1]; at 20° C.) [g/L at 20 °C]	Sugar Solubility in Water ([1]; at 20° C.) [g/L at 20 °C]
		partially soluble		C=C1C[C@@]23CC[C@H]4[C@@](C)(CCC[C@@]4(C)C(=O)O[C@@H]4O[C@H](CO)[C@@H](O)[C@H](O)[C@H]4O[C@@H]4O[C@H](CO)[C@@H](O)[C@H](O)[C@H]4O)[C@@H]2CC[C@]1(O[C@@H]1O[C@H](CO)[C@@H](O)[C@H](O[C@@H]2O[C@H](CO)[C@@H](O)[C@H](O)[C@H]2O)[C@H]1O[C@@H]1O[C@H](CO)[C@@H](O)[C@H](O)[C@H]1O)C3 [rebaudioside D]	Insoluble	100 mg/ml and 88.56 mM		
slowly soluble	soluble		2	OC[C@H]1O[C@H](O[C@]2(CCl)O[C@H](CCl)[C@@H](O)[C@@H]2O)[C@H](O)[C@@H](O)[C@H]1Cl [sucralose, 1,6-dichloro-1,6-dideoxy-β-D-fructofuranosyl-4-chloro-4-deoxy-α-D-galactopyranoside]			283	110
		insoluble in water or poorly soluble		rebaudioside B	Poorly soluble	Poorly soluble		
